{"source": "patent US12077503B2", "about": "“Substituted cyclic amides and their use as herbicides” (FMC CORPORATION, priority 2015, dated 2024)", "test_in_all_cases": "Test D preemergence", "type_in_all_cases": "in vivo", "settings_in_all_cases": "scale 0 to 100", "key": {"[1]": {"test_system": "field violet (Viola arvensis)", "description": "(§1) Seeds of plant species selected from bluegrass (annual bluegrass, Poa annua), blackgrass (Alopecurus myosuroides), canarygrass (littleseed canarygrass, Phalaris minor), chickweed (common chickweed, Stellaria media), Galium (catchweed bedstraw, Galium aparine), bromegrass, downy (downy bromegrass, Bromus tectorum), field poppy (Papaver rhoeas), field violet (Viola arvensis), foxtail, green (green foxtail, Setaria viridis), deadnettle (henbit deadnettle, Lamium amplexicaule), ryegrass, Italian (Italian ryegrass, Lolium multiflorum), Kochia (Kochia scoparia), lambsquarters (Chenopodium album), oilseed rape (Brassica napus), pigweed (Amaranthus retroflexus), chamomile (scentless chamomile, Matricaria inodora), Russian thistle (Salsola kali), speedwell (bird's-eye speedwell, Veronica persica), barley, spring (spring barley, Hordeum vulgare), wheat, spring (spring wheat, Triticum aestivum), buckwheat, wild (wild buckwheat, Polygonum convolvulus), mustard, wild (wild mustard, Sinapis arvensis), oat, wild (wild oat, Avena fatua), radish, wild (wild radish, Raphanus raphanistrum), windgrass (Apera spica-venti), barley, winter (winter barley Hordeum vulgare), and wheat, winter (winter wheat, Triticum aestivum) were planted into a silt loam soil and treated preemergence with test chemicals formulated in a non-phytotoxic solvent mixture which included a surfactant.\n(§2) Treated plants and controls were maintained in a controlled growth environment approximately 21 d after which time all species were compared to controls and visually evaluated. Plant response ratings, summarized in Table D, are based on a scale of 0 to 100 where 0 is no effect and 100 is complete control. A dash (-) response means no test result."}, "[2]": {"test_system": "barley, spring (spring barley, Hordeum vulgare)", "description": "as §1, §2"}, "[3]": {"test_system": "barley, winter (winter barley Hordeum vulgare)", "description": "as §1, §2"}, "[4]": {"test_system": "wheat, spring (spring wheat, Triticum aestivum)", "description": "as §1, §2"}, "[5]": {"test_system": "lambsquarters (Chenopodium album)", "description": "as §1, §2"}, "[6]": {"test_system": "radish, wild (wild radish, Raphanus raphanistrum)", "description": "as §1, §2"}, "[7]": {"test_system": "windgrass (Apera spica-venti)", "description": "as §1, §2"}, "[8]": {"test_system": "wheat, winter (winter wheat, Triticum aestivum)", "description": "as §1, §2"}, "[9]": {"test_system": "chamomile (scentless chamomile, Matricaria inodora)", "description": "as §1, §2"}, "[10]": {"test_system": "buckwheat, wild (wild buckwheat, Polygonum convolvulus)", "description": "as §1, §2"}, "[11]": {"test_system": "bromegrass, downy (downy bromegrass, Bromus tectorum)", "description": "as §1, §2"}, "[12]": {"test_system": "foxtail, green (green foxtail, Setaria viridis)", "description": "as §1, §2"}, "[13]": {"test_system": "Russian thistle (Salsola kali)", "description": "as §1, §2"}, "[14]": {"test_system": "bluegrass (annual bluegrass, Poa annua)", "description": "as §1, §2"}, "[15]": {"test_system": "deadnettle (henbit deadnettle, Lamium amplexicaule)", "description": "as §1, §2"}, "[16]": {"test_system": "speedwell (bird's-eye speedwell, Veronica persica)", "description": "as §1, §2"}, "[17]": {"test_system": "blackgrass (Alopecurus myosuroides)", "description": "as §1, §2"}, "[18]": {"test_system": "field poppy (Papaver rhoeas)", "description": "as §1, §2"}, "[19]": {"test_system": "chickweed (common chickweed, Stellaria media)", "description": "as §1, §2"}, "[20]": {"test_system": "oilseed rape (Brassica napus)", "description": "as §1, §2"}, "Kochia (Kochia scoparia)": {"test_system": "Kochia (Kochia scoparia)", "description": "as §1, §2"}, "[21]": {"test_system": "ryegrass, Italian (Italian ryegrass, Lolium multiflorum)", "description": "as §1, §2"}}}
{"smiles": "CN1C[C@H](c2ccc(C(F)(F)F)cc2)[C@@H](C(=O)Nc2cccc(F)c2F)C1=O", "note": "[Compound 623, (3S,4S)—N-(2,3-difluorophenyl)-1-methyl-2-oxo-4-[4-(trifluoromethyl)phenyl]-3-pyrrolidinecarboxamide]", "values": [{"measurement": "Plant response rating: Field Violet", "setting": "[1]; 31 g ai/ha", "value": 0}, {"measurement": "Plant response rating: Field Violet", "setting": "[1]; 62 g ai/ha", "value": 0}, {"measurement": "Plant response rating: Field Violet", "setting": "[1]; 125 g ai/ha", "value": 10}, {"measurement": "Plant response rating: Field Violet", "setting": "[1]; 250 g ai/ha", "value": 15}, {"measurement": "Plant response rating: Barley, Spring", "setting": "[2]; 31 g ai/ha", "value": 5}, {"measurement": "Plant response rating: Barley, Spring", "setting": "[2]; 62 g ai/ha", "value": 15}, {"measurement": "Plant response rating: Barley, Spring", "setting": "[2]; 125 g ai/ha", "value": 35}, {"measurement": "Plant response rating: Barley, Spring", "setting": "[2]; 250 g ai/ha", "value": 65}, {"measurement": "Plant response rating: Barley, Winter", "setting": "[3]; 31 g ai/ha", "value": 5}, {"measurement": "Plant response rating: Barley, Winter", "setting": "[3]; 62 g ai/ha", "value": 10}, {"measurement": "Plant response rating: Barley, Winter", "setting": "[3]; 125 g ai/ha", "value": 40}, {"measurement": "Plant response rating: Barley, Winter", "setting": "[3]; 250 g ai/ha", "value": 65}, {"measurement": "Plant response rating: Wheat, Spring", "setting": "[4]; 31 g ai/ha", "value": 5}, {"measurement": "Plant response rating: Wheat, Spring", "setting": "[4]; 62 g ai/ha", "value": 10}, {"measurement": "Plant response rating: Wheat, Spring", "setting": "[4]; 125 g ai/ha", "value": 20}, {"measurement": "Plant response rating: Wheat, Spring", "setting": "[4]; 250 g ai/ha", "value": 45}, {"measurement": "Plant response rating: Lambsquarters", "setting": "[5]; 31 g ai/ha", "value": 55}, {"measurement": "Plant response rating: Lambsquarters", "setting": "[5]; 62 g ai/ha", "value": 60}, {"measurement": "Plant response rating: Lambsquarters", "setting": "[5]; 125 g ai/ha", "value": 80}, {"measurement": "Plant response rating: Lambsquarters", "setting": "[5]; 250 g ai/ha", "value": 95}, {"measurement": "Plant response rating: Radish, Wild", "setting": "[6]; 31 g ai/ha", "value": 0}, {"measurement": "Plant response rating: Radish, Wild", "setting": "[6]; 62 g ai/ha", "value": 15}, {"measurement": "Plant response rating: Radish, Wild", "setting": "[6]; 125 g ai/ha", "value": 50}, {"measurement": "Plant response rating: Radish, Wild", "setting": "[6]; 250 g ai/ha", "value": 85}, {"measurement": "Plant response rating: Windgrass", "setting": "[7]; 31 g ai/ha", "value": 85}, {"measurement": "Plant response rating: Windgrass", "setting": "[7]; 62 g ai/ha", "value": 90}, {"measurement": "Plant response rating: Windgrass", "setting": "[7]; 125 g ai/ha", "value": 95}, {"measurement": "Plant response rating: Windgrass", "setting": "[7]; 250 g ai/ha", "value": 95}, {"measurement": "Plant response rating: Wheat, Winter", "setting": "[8]; 31 g ai/ha", "value": 5}, {"measurement": "Plant response rating: Wheat, Winter", "setting": "[8]; 62 g ai/ha", "value": 20}, {"measurement": "Plant response rating: Wheat, Winter", "setting": "[8]; 125 g ai/ha", "value": 20}, {"measurement": "Plant response rating: Wheat, Winter", "setting": "[8]; 250 g ai/ha", "value": 40}, {"measurement": "Plant response rating: Chamomile", "setting": "[9]; 31 g ai/ha", "value": 20}, {"measurement": "Plant response rating: Chamomile", "setting": "[9]; 62 g ai/ha", "value": 80}, {"measurement": "Plant response rating: Chamomile", "setting": "[9]; 125 g ai/ha", "value": 85}, {"measurement": "Plant response rating: Chamomile", "setting": "[9]; 250 g ai/ha", "value": 100}, {"measurement": "Plant response rating: Buckwheat, Wild", "setting": "[10]; 31 g ai/ha", "value": 0}, {"measurement": "Plant response rating: Buckwheat, Wild", "setting": "[10]; 62 g ai/ha", "value": 10}, {"measurement": "Plant response rating: Buckwheat, Wild", "setting": "[10]; 125 g ai/ha", "value": 15}, {"measurement": "Plant response rating: Buckwheat, Wild", "setting": "[10]; 250 g ai/ha", "value": 45}, {"measurement": "Plant response rating: Bromegrass, Downy", "setting": "[11]; 31 g ai/ha", "value": 15}, {"measurement": "Plant response rating: Bromegrass, Downy", "setting": "[11]; 62 g ai/ha", "value": 30}, {"measurement": "Plant response rating: Bromegrass, Downy", "setting": "[11]; 125 g ai/ha", "value": 40}, {"measurement": "Plant response rating: Bromegrass, Downy", "setting": "[11]; 250 g ai/ha", "value": 65}, {"measurement": "Plant response rating: Foxtail, Green", "setting": "[12]; 31 g ai/ha", "value": 95}, {"measurement": "Plant response rating: Foxtail, Green", "setting": "[12]; 62 g ai/ha", "value": 98}, {"measurement": "Plant response rating: Foxtail, Green", "setting": "[12]; 125 g ai/ha", "value": 98}, {"measurement": "Plant response rating: Foxtail, Green", "setting": "[12]; 250 g ai/ha", "value": 98}, {"measurement": "Plant response rating: Russian Thistle", "setting": "[13]; 31 g ai/ha", "value": 15}, {"measurement": "Plant response rating: Russian Thistle", "setting": "[13]; 62 g ai/ha", "value": 25}, {"measurement": "Plant response rating: Russian Thistle", "setting": "[13]; 125 g ai/ha", "value": 60}, {"measurement": "Plant response rating: Russian Thistle", "setting": "[13]; 250 g ai/ha", "value": 70}, {"measurement": "Plant response rating: Bluegrass", "setting": "[14]; 31 g ai/ha", "value": 25}, {"measurement": "Plant response rating: Bluegrass", "setting": "[14]; 62 g ai/ha", "value": 65}, {"measurement": "Plant response rating: Bluegrass", "setting": "[14]; 125 g ai/ha", "value": 70}, {"measurement": "Plant response rating: Bluegrass", "setting": "[14]; 250 g ai/ha", "value": 85}, {"measurement": "Plant response rating: Deadnettle", "setting": "[15]; 31 g ai/ha", "value": 25}, {"measurement": "Plant response rating: Deadnettle", "setting": "[15]; 62 g ai/ha", "value": 65}, {"measurement": "Plant response rating: Deadnettle", "setting": "[15]; 125 g ai/ha", "value": 75}, {"measurement": "Plant response rating: Deadnettle", "setting": "[15]; 250 g ai/ha", "value": 75}, {"measurement": "Plant response rating: Speedwell", "setting": "[16]; 31 g ai/ha", "value": 95}, {"measurement": "Plant response rating: Speedwell", "setting": "[16]; 62 g ai/ha", "value": 100}, {"measurement": "Plant response rating: Speedwell", "setting": "[16]; 125 g ai/ha", "value": 100}, {"measurement": "Plant response rating: Speedwell", "setting": "[16]; 250 g ai/ha", "value": 90}, {"measurement": "Plant response rating: Blackgrass", "setting": "[17]; 31 g ai/ha", "value": 30}, {"measurement": "Plant response rating: Blackgrass", "setting": "[17]; 62 g ai/ha", "value": 40}, {"measurement": "Plant response rating: Blackgrass", "setting": "[17]; 125 g ai/ha", "value": 45}, {"measurement": "Plant response rating: Blackgrass", "setting": "[17]; 250 g ai/ha", "value": 70}, {"measurement": "Plant response rating: Field Poppy", "setting": "[18]; 31 g ai/ha", "value": 80}, {"measurement": "Plant response rating: Field Poppy", "setting": "[18]; 62 g ai/ha", "value": 80}, {"measurement": "Plant response rating: Field Poppy", "setting": "[18]; 125 g ai/ha", "value": 85}, {"measurement": "Plant response rating: Field Poppy", "setting": "[18]; 250 g ai/ha", "value": 100}, {"measurement": "Plant response rating: Chickweed", "setting": "[19]; 31 g ai/ha", "value": 65}, {"measurement": "Plant response rating: Chickweed", "setting": "[19]; 62 g ai/ha", "value": 95}, {"measurement": "Plant response rating: Chickweed", "setting": "[19]; 125 g ai/ha", "value": 95}, {"measurement": "Plant response rating: Chickweed", "setting": "[19]; 250 g ai/ha", "value": 95}, {"measurement": "Plant response rating: Oilseed Rape", "setting": "[20]; 31 g ai/ha", "value": 15}, {"measurement": "Plant response rating: Oilseed Rape", "setting": "[20]; 62 g ai/ha", "value": 20}, {"measurement": "Plant response rating: Oilseed Rape", "setting": "[20]; 125 g ai/ha", "value": 25}, {"measurement": "Plant response rating: Oilseed Rape", "setting": "[20]; 250 g ai/ha", "value": 75}, {"measurement": "Plant response rating: Kochia", "setting": "Kochia (Kochia scoparia); 31 g ai/ha", "value": 25}, {"measurement": "Plant response rating: Kochia", "setting": "Kochia (Kochia scoparia); 62 g ai/ha", "value": 75}, {"measurement": "Plant response rating: Kochia", "setting": "Kochia (Kochia scoparia); 125 g ai/ha", "value": 95}, {"measurement": "Plant response rating: Kochia", "setting": "Kochia (Kochia scoparia); 250 g ai/ha", "value": 95}, {"measurement": "Plant response rating: Ryegrass, Italian", "setting": "[21]; 31 g ai/ha", "value": 0}, {"measurement": "Plant response rating: Ryegrass, Italian", "setting": "[21]; 62 g ai/ha", "value": 15}, {"measurement": "Plant response rating: Ryegrass, Italian", "setting": "[21]; 125 g ai/ha", "value": 40}, {"measurement": "Plant response rating: Ryegrass, Italian", "setting": "[21]; 250 g ai/ha", "value": 65}]}
